Data on 4 compounds can be found in patent US20230192718A1, “BICYCLIC ENONE CARBOXYLATES AS MODULATORS OF TRANSPORTERS AND USES THEREOF” (NIROGY THERAPEUTICS, INC., priority 2018, published 2023).

For assay [1], the system named is panel of solid and haemotological tumor cell lines. The experiment in a line: MTS cell proliferation assay (cytotoxicity). Format: cell-based. As to conditions: 72 hours incubation, MTS readout. As for the experimental part:
MTS Cell Proliferation Assay
The anti-proliferation effect of MCT inhibition was investigated across a panel of solid and haemotological tumor cell lines. Cells were routinely cultured in their appropriate growth medium. On day 1, between 5,000-20,000 cells/well were plated into 96-well plates. 100 μL of phosphate buffered saline solution was added to the external wells to prevent media evaporation. Plates were incubated in growth medium overnight at 37° C. in the presence of 5% CO2. On day 2, dry weight compound stocks were dissolved to a concentration of 20 mM in 100% DMSO. Compounds were further diluted in the assay medium; 10 mM lactate medium (without glucose, pyruvate, and glutamine) or RPMI medium or appropriate medium to generate a final dose range of 10 nM to 100 μM. Growth medium in the 96-well plate was replaced with the assay medium (10 mM lactate medium or RPMI medium or appropriate medium), and compounds were added to each well in the plate at different concentrations via serial dilution or pre-prepared solutions in assay medium. Plates were then incubated at 37° C. in the presence of 5% CO2 for a further 72 hours. On day 5, 20 μL of CellTiter 96 AQ MTS reagent was added to each well and the plate was returned to the incubator for 2 hours. In case of lactate medium, the medium was replaced by 100 μL of growth medium and 20 μL of CellTiter 96 AQ MTS reagent. MTS is bioreduced by NADPH or NADH produced by dehydrogenase enzymes in metabolically active cells into a coloured formazan product that is soluble in tissue culture medium. The amount of coloured formazan product is directly proportional to the number of living cells in culture. The absorbance of the plates was read on a Synergy H4 plate reader using […] measurement wavelength. Dose response curves were plotted and IC50 values were calculated using GraphPrism. The IC50 value is equivalent to the concentration of compound that causes 50% inhibition of growth calculated from the compound treated signal to the vehicle treated signal.
MTT Cell Proliferation Assay
The MIT assay is a colorimetric assay for assessing cell viability similar to MTS assay. NAD(P)H-dependent cellular oxidoreductase enzymes may, under defined conditions, reflect the number of viable cells present. These enzymes are capable of reducing the tetrazolium dye MTT 3-(4,5-dimethylthiazol-2-yl)-2,5-diphenyltetrazolium bromide to its insoluble formazan, which has a purple color. MTT powder is dissolved in Dulbecco's Phosphate Buffered Saline, pH=7.4 (DPBS) to 5 mg/ml as stock solution. Cells and test compounds in 96-well plates were prepared containing a final volume of 100 μL/well as described in the MTS assay. The assay was performed similar to MTS assay above. […] The absorbance was read at 570 nm.

In assay [2] the test system is MDA-MB-231 human breast carcinoma cells. The assay can be described thus: Tumor xenograft model (orthotopic, NOD-SCID mice). Format: in vivo. As to conditions: nine days after start of treatment. As to the method: In order to test the in vivo efficacy of the invention, Example 9 was tested according to the protocol of Iorns to al. [Iorns E, Drews-Elger K, Ward T M, Dean S, Clarke J, Berry D, et al. (2012) A New Mouse Model for the Study of Human Breast Cancer Metastasis. PLoS ONE 7(10): e47995. https://doi.org/10.1371/journal.pone.0047995] Twenty-eight female NOD-SCID mice (Charles River) were injected orthotopically with basal MDA-MB-231 human breast carcinoma cells into the mammary fat pads. […] Mice were dosed qd with 30 mg/kg and 75 mg/kg p.o. of Example 9. At nine days after start of treatment tumor volume was roughly 50% of control in mice dosed at 30 mg/kg and roughly 30% of control in mice dosed at 75 mg/kg.

Structures are written as SMILES.

For the compound `CN(Cc1ccccc1)c1cc2oc(=O)c(C(=O)O)cc2s1` [Example 1, 2-(benzyl(methyl)amino)-5-oxo-5H-thieno[3,2-b]pyran-6-carboxylic acid], in assay [1], the IC50 (in general, the concentration that gives 50% inhibition) was less than 1 µM.
Still for that read-out and setting: under `COc1ccccc1C(=O)N(C)c1cc2oc(=O)c(C(=O)O)cc2s1` [Example 17, 2-[(2-Methoxy-benzoyl)-methyl-amino]-5-oxo-5H-thieno[3,2-b]pyran-6-carboxylic acid] stands less than 1 µM; under `CN(Cc1ccc(F)cc1)c1cc2oc(=O)c(C(=O)O)cc2s1` [Example 2, 2-((4-fluorobenzyl)(methyl)amino)-5-oxo-5H-thieno[3,2-b]pyran-6-carboxylic acid], less than 1 µM.
For the compound `COc1cccc(C(=O)N(C)c2cc3oc(=O)c(C(=O)O)cc3s2)c1` [Example 9, 2-(3-methoxy-N-methylbenzamido)-5-oxo-5H-thieno[3,2-b]pyran-6-carboxylic acid], the IC50 in assay [1] is less than 1 µM. Further, the “tumor volume, % of control” value in assay [2] (30 mg/kg p.o. qd) was “roughly 50 % of control”; in assay [2] (75 mg/kg p.o. qd) it was “roughly 30 % of control”.
